For assay [1], the target named is T1, M1 muscarinic receptor (Homo sapiens, UniProt P11229).
T1 construct: expressed in transfected cells; host or cells: CHO cells (M1-CHO, under zeocin and G418 selection)
T1 sequence (P11229 1-460): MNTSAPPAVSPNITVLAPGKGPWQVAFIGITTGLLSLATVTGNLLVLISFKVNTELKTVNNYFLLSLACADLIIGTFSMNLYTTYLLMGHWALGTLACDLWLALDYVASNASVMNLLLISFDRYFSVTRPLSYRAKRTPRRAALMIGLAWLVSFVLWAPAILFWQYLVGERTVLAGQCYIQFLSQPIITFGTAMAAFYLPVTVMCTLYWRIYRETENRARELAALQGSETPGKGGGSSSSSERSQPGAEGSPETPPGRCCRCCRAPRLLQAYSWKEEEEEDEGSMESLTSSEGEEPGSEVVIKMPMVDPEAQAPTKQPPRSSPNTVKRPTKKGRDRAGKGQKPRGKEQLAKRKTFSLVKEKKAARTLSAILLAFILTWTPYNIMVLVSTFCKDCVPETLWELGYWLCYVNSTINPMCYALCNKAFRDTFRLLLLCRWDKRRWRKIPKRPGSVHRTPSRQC
The experiment in a line: Functional mobilization of intracellular calcium (FLIPR, Fluo-3), M1-CHO cells. The conditions noted are these: for Emax: read-out: M1 Efficacy. The format is cell-based. An outline of the steps: (§1)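 Fluo-3 read-out, ex 488/em 540 nm, 60 sec on FLIPR 3. For agonist mode, compound added directly; for inhibition, 15 min compound pre-incubation before carbachol at EC80 (added as a 3× solution), or co-application. Buffer pH 7.4 with 1 mM probenecid; DMSO 0.5%.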

Assay [2] has as its target T2, M4 muscarinic receptor (Homo sapiens, UniProt P08173).
T2 construct: expressed in transfected cells; host or cells: CHO cells (M4-CHO, under puromycin, zeocin and blasticidin selection)
T2 sequence (P08173 1-479): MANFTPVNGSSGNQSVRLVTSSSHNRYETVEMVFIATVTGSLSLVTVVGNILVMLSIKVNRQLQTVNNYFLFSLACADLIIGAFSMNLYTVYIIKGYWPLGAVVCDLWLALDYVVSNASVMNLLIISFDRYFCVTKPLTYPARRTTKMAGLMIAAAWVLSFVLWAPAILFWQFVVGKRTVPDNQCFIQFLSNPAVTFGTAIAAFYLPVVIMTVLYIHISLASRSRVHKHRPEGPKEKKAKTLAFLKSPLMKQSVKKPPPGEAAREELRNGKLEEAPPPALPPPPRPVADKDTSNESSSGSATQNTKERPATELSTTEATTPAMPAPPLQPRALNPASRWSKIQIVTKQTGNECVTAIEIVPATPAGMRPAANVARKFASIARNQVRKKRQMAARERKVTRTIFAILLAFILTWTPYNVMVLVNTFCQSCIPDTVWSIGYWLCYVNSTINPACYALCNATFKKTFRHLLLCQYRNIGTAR
The experiment in a line: Functional mobilization of intracellular calcium (FLIPR, Fluo-3), M4-CHO cells. The format is cell-based. The conditions noted are these: for Emax: read-out: M4 Efficacy. An outline of the steps: as §1

The mark [3] stands for this setting: compound nos. 1-454, 100% efficacy is the maximum response obtained with the Carbachol control.
[4] abbreviates: compound nos. 1-454, M1-CHO cells, calcium mobilization.
Where [5] appears, read: compound nos. 1-454, M4-CHO cells, calcium mobilization.
Setting [6] is: compound nos. 455-509, 100% efficacy is the maximum response obtained with the Carbachol control.

Where two headings read alike, the source gives them in different places.

For the molecule `CCOC(=O)N1C2CCC1CC(N1CCC3(CCc4ccccc43)CC1)C2` (stereo not shown) [compound 365], the values for the Emax in assay [1] (setting [3]) and in assay [2] (setting [3]) were 65 to 85% and < 55%, respectively. In assay [1] (setting [4]), the “M1 Activity” value is recorded as “+++ (activity was measured to be less than or equal to 0.7 μM)”. In addition, the “M4 Activity” value in assay [2] (setting [5]) is listed as “+ (activity was measured to be greater than or equal to 4.0 μM)”.
On the same counts, the results for `O=C(O[C@@H]1CCOC1)N1CC2(CCN(C3CC4CCC(C3)N4C(=O)O[C@@H]3CCOC3)CC2)c2cc(F)ccc21` (stereo partly shown) [compound 243] are 65 to 85%, 55 to 70%, “+++ (activity was measured to be less than or equal to 0.7 μM)” and “+ (activity was measured to be greater than or equal to 4.0 μM)”.
Take `CCOC(=O)N1CCC(N2CCC3(CC2)CN(C(=O)O[C@H]2CCOC2)c2ccc(F)cc23)CC1` [compound 428]: in assay [1] (compound nos. 1-454), the “M1 Activity” value was “++ (activity was measured to be between 0.7 μM and 3.0 μM)”. Further, the Emax was < 65% in assay [1] (setting [3]) and < 55% in assay [2] (setting [3]). In addition, the “M4 Activity” value in assay [2] (compound nos. 1-454) is recorded as “+ (activity was measured to be greater than or equal to 4.0 μM)”.
As for `Cc1ccc2c(c1)C1(CCN(C3CC4CCC(C4)C3)CC1)CN2` (stereo not shown) [compound 397], the “M1 Activity” value in assay [1] (compound nos. 1-454) was “++ (activity was measured to be between 0.7 μM and 3.0 μM)”. The Emax in assay [1] (setting [3]) is 65 to 85%; in assay [2] (setting [3]), < 55%. The “M4 Activity” value in assay [2] (compound nos. 1-454) is “+ (activity was measured to be greater than or equal to 4.0 μM)”.
As to `c1ccc2c(c1)NCC21CCN(C2CC3CCC2C3)CC1` (stereo not shown) [compound 272], the Emax in assay [1] (setting [3]) was 65 to 85%; in assay [2] (setting [3]), > 70%. Further, the “M1 Activity” value in assay [1] (setting [4]) was “+++ (activity was measured to be less than or equal to 0.7 μM)”. For the same molecule, the “M4 Activity” value in assay [2] (setting [5]) is given as “+++ (activity was measured to be less than or equal to 0.1 μM)”.
For the molecule `CC(C)OC(=O)N1C2CCC1CC(N1CCC3(CC1)CN(C(=O)O[C@@H]1CCOC1)c1ccc(F)cc13)C2` (stereo partly shown) [compound 402], in assay [1] (compound nos. 1-454), the “M1 Activity” value is “++ (activity was measured to be between 0.7 μM and 3.0 μM)”. The “M1 Efficacy” value in assay [1] (setting [3]) was “++ (efficacy was calculated to be between 85% and 65%)”. Also, in assay [2] (compound nos. 1-454), the “M4 Activity” value was “+ (activity was measured to be greater than or equal to 4.0 μM)”. The “M4 Efficacy” value in assay [2] (setting [3]) is “+ (efficacy was calculated to be 55% or less)”.
For `CC(=O)N1CC2(CCN(C3CCCCC3C)CC2)c2cc(F)ccc21` (stereo not shown) [compound 52], the Emax in assay [1] (setting [3]) was > 85%; in assay [2] (setting [3]), 55 to 70%. The “M1 Activity” value in assay [1] (setting [4]) is “+++ (activity was measured to be less than or equal to 0.7 μM)”. Besides, in assay [2] (setting [5]), the “M4 Activity” value is “+++ (activity was measured to be less than or equal to 0.1 μM)”.
Take `COC(=O)N1C2CCC1CC(N1CCC3(CC1)CN(S(C)(=O)=O)c1ccc(F)cc13)C2` (stereo not shown) [compound 383]: in assay [1] (compound nos. 1-454), the “M1 Activity” value is reported as “+++ (activity was measured to be less than or equal to 0.7 μM)”. The Emax in assay [1] (setting [3]) is 65 to 85%; in assay [2] (setting [3]) it was < 55%. In addition, the “M4 Activity” value in assay [2] (compound nos. 1-454) is “++ (activity was measured to be between 0.1 μM and 4.0 μM)”.
With `CCOC(=O)N1CCC(N2CCC3(CC2)CN(C(C)=O)c2ccc(Cl)cc23)CC1` [compound 141], the results for the Emax in assay [1] (setting [3]) and in assay [2] (setting [3]) were > 85% and > 70%, respectively. The “M1 Activity” value in assay [1] (setting [4]) was “+++ (activity was measured to be less than or equal to 0.7 μM)”. Further, the “M4 Activity” value in assay [2] (setting [5]) is “++ (activity was measured to be between 0.1 μM and 4.0 μM)”.
As to `CCCOC(=O)N1C2CCC1CC(N1CCC3(CC1)CN(S(C)(=O)=O)c1ccc(F)cc13)C2` (stereo not shown) [compound 294], the results for the Emax in assay [1] (setting [3]) and in assay [2] (setting [3]) were > 85% and 55 to 70%, respectively. In addition, in assay [1] (setting [4]), the “M1 Activity” value is “++ (activity was measured to be between 0.7 μM and 3.0 μM)”. The “M4 Activity” value in assay [2] (setting [5]) is “++ (activity was measured to be between 0.1 μM and 4.0 μM)”.
On to `Fc1ccc2c(c1)C1(CCN(C[C@@H]3C[C@H]4CC[C@H]3O4)CC1)CN2` [compound 429], for which the “M1 Activity” value in assay [1] (compound nos. 1-454) is “++ (activity was measured to be between 0.7 μM and 3.0 μM)”. The results for the Emax in assay [1] (setting [3]) and in assay [2] (setting [3]) were < 65% and < 55%, respectively. Also, the “M4 Activity” value in assay [2] (compound nos. 1-454) is recorded as “+ (activity was measured to be greater than or equal to 4.0 μM)”.
`CCOC(=O)N1C2CCC1CC(N1CCC3(CC1)CN(C(=O)C(C)C)c1ccc(F)cc13)C2` (stereo not shown) [compound 390]: in assay [1] (compound nos. 1-454), the “M1 Activity” value was “+++ (activity was measured to be less than or equal to 0.7 μM)”. The Emax in assay [1] (setting [3]) is 65 to 85%; in assay [2] (setting [3]) it was < 55%. Further, in assay [2] (compound nos. 1-454), the “M4 Activity” value is recorded as “+ (activity was measured to be greater than or equal to 4.0 μM)”.
`CC(=O)N[C@H]1CC2(CCN(C3CCC[C@@H](C)C3)CC2)c2ccccc21` (stereo partly shown) [compound 358]: the Emax fell in the range of 65 to 85% in assay [1] (setting [3]) and 55 to 70% in assay [2] (setting [3]). Also, the “M1 Activity” value in assay [1] (setting [4]) is “+++ (activity was measured to be less than or equal to 0.7 μM)”. In addition, in assay [2] (setting [5]), the “M4 Activity” value was “++ (activity was measured to be between 0.1 μM and 4.0 μM)”.
For the molecule `CCOC(=O)N1CCC(CN2CCC3(CCc4ccccc43)CC2)CC1` [compound 414], the “M1 Activity” value in assay [1] (compound nos. 1-454) was “+ (activity was measured to be greater than or equal to 3.0 μM)”. For the same molecule, the Emax in assay [1] (setting [3]) was < 65%; in assay [2] (setting [3]), < 55%. Also, the “M4 Activity” value in assay [2] (compound nos. 1-454) is listed as “+ (activity was measured to be greater than or equal to 4.0 μM)”.
Consider `CC(=O)N1CCC2(CCN(C3CCN(c4nc(C)ns4)CC3)CC2)c2ccccc21` [compound 492], for which the results for the Emax in assay [1] (setting [6]) and in assay [2] (setting [6]) were > 100% and 25 to 100%, respectively. The “M1 Activity” value in assay [1] (compounds 455-509) is “+++ (activity was measured to be less than or equal to 2.0 μM)”. The “M4 Activity” value in assay [2] (compounds 455-509) is “++ (activity was measured to be between 2.0 μM and 5.0 μM)”.
As for `O=C(OC1CCCC1)N1C2CCC1CC(N1CCC3(CC1)COc1ccc(F)cc13)C2` (stereo not shown) [compound 133], the Emax in assay [1] (setting [3]) is > 85%; in assay [2] (setting [3]), 55 to 70%. For the same molecule, the “M1 Activity” value in assay [1] (setting [4]) is given as “+++ (activity was measured to be less than or equal to 0.7 μM)”. Moreover, in assay [2] (setting [5]), the “M4 Activity” value was “++ (activity was measured to be between 0.1 μM and 4.0 μM)”.
On to `CCOC(=O)N1CCC(N2CCC3(CC2)CNc2ccccc23)CC1` [compound 352], for which the Emax is > 85% in assay [1] (setting [3]) and > 70% in assay [2] (setting [3]). Further, the “M1 Activity” value in assay [1] (setting [4]) is reported as “+++ (activity was measured to be less than or equal to 0.7 μM)”. The “M4 Activity” value in assay [2] (setting [5]) is given as “+ (activity was measured to be greater than or equal to 4.0 μM)”.
In the case of `CC(=O)N(C)[C@H]1CC2(CCN(C[C@H]3C[C@H]4CC[C@@H]3C4)CC2)c2ccccc21` [compound 190, N—((S)-1′-((1R,2S,4S)-bicyclo[2.2.1]heptan-2-ylmethyl)-2,3-dihydrospiro[indene-1,4′-piperidine]-3-yl)-N-methylacetamide], the Emax in assay [1] (setting [3]) is > 85%; in assay [2] (setting [3]) it was 55 to 70%. In addition, the “M1 Activity” value in assay [1] (setting [4]) is given as “+ (activity was measured to be greater than or equal to 3.0 μM)”. Also, the “M4 Activity” value in assay [2] (setting [5]) is on record as “+ (activity was measured to be greater than or equal to 4.0 μM)”.
Consider `CN(C)C(=O)N1CC2(CCN(CC3CCN(c4nccs4)C3)CC2)c2cc(F)ccc21` (stereo not shown) [compound 450], for which the “M1 Activity” value in assay [1] (compound nos. 1-454) is “++ (activity was measured to be between 0.7 μM and 3.0 μM)”. Moreover, the values for the Emax in assay [1] (setting [3]) and in assay [2] (setting [3]) were 65 to 85% and 55 to 70%, respectively. Besides, the “M4 Activity” value in assay [2] (compound nos. 1-454) is given as “+++ (activity was measured to be less than or equal to 0.1 μM)”.
